What all share (type): in vivo, human
A short description of assay [1]: Urinary MDA after a single cycling bout under hypoxic conditions (16% oxygen), crossover trial. The settings on record: 7 grams ribose in 250 mL water before and after exercise; compared to the placebo; n=7 subjects; p=0.01. How it is done: (§1) Seven healthy, moderately to highly conditioned subjects volunteered to participate in this randomized, blinded, crossover trial. All subjects were between the ages of 23 and 41 years of age, and each subject cycled in two distinct trial arms, a ribose phase and a control phase. One week separated each trial arm. Subjects ingested either 7 grams of ribose in 250 mL of water or just plain water, five minutes prior to the start of exercise and again within five minutes following exercise. The scheduled exercise was 25 minutes of cycling at a workload relating to the lactic acid threshold. Subjects inhaled a hypoxic gas mixture of 16% oxygen and 84% nitrogen through a one-way breathing valve during the exercise bout. Following the cycling exercise, subjects sat quietly for 60 minutes and breathed room air during the recovery phase. All tests were conducted at room temperature. […] A whole blood sample was analyzed for hemoglobin. […] Each frozen plasma sample was analyzed for total protein and uric acid levels. Plasma samples were also analyzed for reduced glutathione levels (GSH kit, Oxis Research, Portland, Oreg.) and volumes were corrected for potential fluid loss by measuring total protein values. The frozen urine samples were analyzed for MDA (MDA kit, Oxis Research, Portland, Oreg.). […]

Assay [2] is described as follows: Reduced plasma glutathione (GSH) after a single cycling bout under hypoxic conditions. The settings on record: 7 grams ribose before and after exercise; n=7 subjects; p=0.000. How it is done: as §1
A short description of assay [3]: Heart rate during a cycling bout under hypoxic conditions. The settings on record: n=7 subjects. As for the experimental part: Seven healthy, moderately to highly conditioned subjects volunteered to participate in this randomized, blinded, crossover trial. All subjects were between the ages of 23 and 41 years of age, and each subject cycled in two distinct trial arms, a ribose phase and a control phase. One week separated each trial arm. Subjects ingested either 7 grams of ribose in 250 mL of water or just plain water, five minutes prior to the start of exercise and again within five minutes following exercise. The scheduled exercise was 25 minutes of cycling at a workload relating to the lactic acid threshold. Subjects inhaled a hypoxic gas mixture of 16% oxygen and 84% nitrogen through a one-way breathing valve during the exercise bout. Following the cycling exercise, subjects sat quietly for 60 minutes and breathed room air during the recovery phase. All tests were conducted at room temperature. The cardiovascular parameters of heart rate and oxygen pulse saturation (SpO2) were collected at 9 minutes, 17 minutes, and 25 minutes of exercise. Oxygen pulse saturation was collected with a Nonin pulse oximeter (Nonin Medical Inc., Plymouth, Minn.). […] The 4.8% vs. 7.5% represents heart rates of 175 beats per minute (bpm) and 181 bpm for ribose and placebo (n=7 subjects).

The nature of assay [4]: Subjective ranking of exercise and recovery by blinded subjects. How it is done:
Seven healthy, moderately to highly conditioned subjects volunteered to participate in this randomized, blinded, crossover trial. All subjects were between the ages of 23 and 41 years of age, and each subject cycled in two distinct trial arms, a ribose phase and a control phase. One week separated each trial arm. Subjects ingested either 7 grams of ribose in 250 mL of water or just plain water, five minutes prior to the start of exercise and again within five minutes following exercise. The scheduled exercise was 25 minutes of cycling at a workload relating to the lactic acid threshold. Subjects inhaled a hypoxic gas mixture of 16% oxygen and 84% nitrogen through a one-way breathing valve during the exercise bout. Following the cycling exercise, subjects sat quietly for 60 minutes and breathed room air during the recovery phase. All tests were conducted at room temperature. […] During the control trial, subjects expressed strong desires to take a nap during the recovery period. Additionally, four of the subjects reported that after leaving the laboratory, they went home and took long (>2 hours) naps.

SMILES strings stand for the structures.

As for `O=C[C@H](O)[C@H](O)[C@H](O)CO` [ribose, D-ribose], in assay [1], the “Percent change in urine MDA” value is reported as “significantly lower”. In addition, the “Percent change in plasma GSH” value in assay [2] is “significantly lower”. Moreover, in assay [3] (during hypoxic exercise, placebo 181 bpm), the Heart rate worked out at 175 bpm. For the same compound, the “Percent change in heart rate during exercise (in words)” value in assay [3] (ribose supplementation vs placebo, p=0.03) was “significantly less”. For the same compound, in assay [3] (ribose supplementation, placebo 7.5%), the “Percent change in heart rate during exercise” value is reported as 4.8%. Besides, in assay [4] (after cycling when they ingested ribose), the “Blinded subjects who ranked the exercise easier and felt they had a faster recovery period” value is listed as 6 out of 7. Besides, in assay [4] (recovery after hypoxic cycling when ribose was ingested), the “Comments and symptoms observed during recovery” value is recorded as “decreased lethargy”.

Values taken from patent US20030212006A1, “Method for reducing free radical formation in healthy individuals undergoing hypoxic exercise and medical conditions with increased oxygen free radicals” (priority 2002, published 2003).
